Source: ChEMBL document CHEMBL1201862, “PubChem BioAssay data set” (2004)
Active and inactive are the calls of the source.

How the values were obtained:
[1] = target: T1, Short transient receptor potential channel 4 (Mus musculus, UniProt Q9QUQ5); test: mouse TRPC4 channel activators, dose response, cell-based, HEK293 TRPC4/mu-opioid, Fluo-4 calcium (AID 434937); type: functional
T1 sequence (Q9QUQ5 whole entry): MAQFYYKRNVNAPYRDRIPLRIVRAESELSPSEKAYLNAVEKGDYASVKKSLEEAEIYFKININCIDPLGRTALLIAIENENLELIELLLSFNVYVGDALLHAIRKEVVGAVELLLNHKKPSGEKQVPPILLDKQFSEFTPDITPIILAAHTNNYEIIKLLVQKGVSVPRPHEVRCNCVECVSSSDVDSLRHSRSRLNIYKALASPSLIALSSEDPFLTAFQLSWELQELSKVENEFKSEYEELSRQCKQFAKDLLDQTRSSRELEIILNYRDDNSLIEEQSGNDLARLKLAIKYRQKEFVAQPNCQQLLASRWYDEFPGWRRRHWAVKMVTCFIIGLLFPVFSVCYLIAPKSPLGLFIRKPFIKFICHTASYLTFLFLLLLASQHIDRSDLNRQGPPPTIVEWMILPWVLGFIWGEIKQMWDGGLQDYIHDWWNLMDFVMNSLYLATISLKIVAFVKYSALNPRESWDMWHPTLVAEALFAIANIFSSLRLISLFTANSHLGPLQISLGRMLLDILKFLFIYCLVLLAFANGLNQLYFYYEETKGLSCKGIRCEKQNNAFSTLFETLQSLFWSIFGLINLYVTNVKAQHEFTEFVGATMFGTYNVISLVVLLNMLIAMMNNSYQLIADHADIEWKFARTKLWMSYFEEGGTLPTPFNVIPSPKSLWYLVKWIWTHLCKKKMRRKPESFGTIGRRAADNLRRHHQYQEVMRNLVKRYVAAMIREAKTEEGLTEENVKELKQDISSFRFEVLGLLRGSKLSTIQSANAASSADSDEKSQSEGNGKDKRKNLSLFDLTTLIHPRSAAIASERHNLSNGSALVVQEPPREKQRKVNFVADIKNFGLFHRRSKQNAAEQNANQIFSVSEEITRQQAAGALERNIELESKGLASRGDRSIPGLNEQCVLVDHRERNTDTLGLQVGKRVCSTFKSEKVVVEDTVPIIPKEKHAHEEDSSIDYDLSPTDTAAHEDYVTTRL

[2] = ZM109 Env clade C HIV-1 fusion inhibitors, dose response, HeLa effector, CEM target cells, luciferase, cherry-pick (AID 652058); type: functional, cell-based
[3] = off-target signal loss in HeLa-CEM21 co-culture – HeLa F-luc CTL cells, cherry-picked, counter-screen for HIV-1 Env fusion inhibitor project, dose response (AID 652040); type: functional, cell-based;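 also: potency for signal decrease marking cytotoxic or nonspecific inhibition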
[4] = inhibitors of HIV Env-driven cell fusion, dose response, cherry-pick (AID 652057); type: functional, cell-based
[5] = target: Beta-2 adrenergic receptor (Homo sapiens, UniProt P07550); test: beta2AR agonists driving receptor internalization, dose response, cell-based, FAP fluorogen, flow cytometry, cherry pick 1 (AID 588763); type: functional
Beta-2 adrenergic receptor, sequence (P07550 whole entry): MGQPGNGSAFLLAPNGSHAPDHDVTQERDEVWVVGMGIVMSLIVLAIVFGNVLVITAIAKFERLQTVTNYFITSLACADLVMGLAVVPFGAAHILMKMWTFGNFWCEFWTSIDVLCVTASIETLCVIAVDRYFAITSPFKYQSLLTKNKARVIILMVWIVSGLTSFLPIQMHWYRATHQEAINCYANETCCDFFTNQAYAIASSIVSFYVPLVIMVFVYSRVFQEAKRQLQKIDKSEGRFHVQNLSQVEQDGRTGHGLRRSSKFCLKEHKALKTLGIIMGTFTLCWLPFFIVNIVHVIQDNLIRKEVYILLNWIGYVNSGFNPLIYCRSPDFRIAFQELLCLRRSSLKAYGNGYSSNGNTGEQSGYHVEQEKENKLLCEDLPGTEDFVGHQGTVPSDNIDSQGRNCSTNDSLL

[6] = target: Peroxisome proliferator-activated receptor gamma/Nuclear receptor coactivator 1 (Homo sapiens, UniProt P37231); test: TR-FRET dose response biochemical High Throughput Screening assay for agonists of the steroid receptor coactivator 1 (SRC-1) recruitment by the peroxisome proliferator-activated receptor gamma (PPAR gamma): non-selective agonists. [Related pubchem assays (depositor defined):AID1300, AID1808, AID504735, AID631]; type: protein assay
[7] = target: Peroxisome proliferator-activated receptor gamma/Nuclear receptor coactivator 2 (Homo sapiens, UniProt P37231); test: (§1) TR-FRET dose response biochemical High Throughput Screening assay for agonists of the steroid receptor coactivator 2 (SRC-2) recruitment by the peroxisome proliferator-activated receptor gamma (PPAR gamma): non-selective agonists. [Related pubchem assays: 1297, 1032 ]; type: functional
Peroxisome proliferator-activated receptor gamma/Nuclear receptor coactivator 2, sequence (P37231 whole entry): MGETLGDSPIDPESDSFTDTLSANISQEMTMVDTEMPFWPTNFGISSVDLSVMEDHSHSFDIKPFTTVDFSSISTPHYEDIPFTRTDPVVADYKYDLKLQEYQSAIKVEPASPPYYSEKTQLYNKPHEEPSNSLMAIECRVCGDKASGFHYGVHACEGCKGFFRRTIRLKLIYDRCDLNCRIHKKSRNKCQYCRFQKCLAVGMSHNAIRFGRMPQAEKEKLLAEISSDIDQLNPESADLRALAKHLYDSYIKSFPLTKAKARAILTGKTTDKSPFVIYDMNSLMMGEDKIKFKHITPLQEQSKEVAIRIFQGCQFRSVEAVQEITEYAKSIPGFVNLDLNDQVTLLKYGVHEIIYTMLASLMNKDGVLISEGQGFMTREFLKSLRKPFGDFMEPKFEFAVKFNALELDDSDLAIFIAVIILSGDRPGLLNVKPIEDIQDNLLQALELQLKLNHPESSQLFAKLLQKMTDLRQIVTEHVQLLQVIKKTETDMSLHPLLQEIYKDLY
Peroxisome proliferator-activated receptor gamma/Nuclear receptor coactivator 2, sequence (Q15596 whole entry, further chain): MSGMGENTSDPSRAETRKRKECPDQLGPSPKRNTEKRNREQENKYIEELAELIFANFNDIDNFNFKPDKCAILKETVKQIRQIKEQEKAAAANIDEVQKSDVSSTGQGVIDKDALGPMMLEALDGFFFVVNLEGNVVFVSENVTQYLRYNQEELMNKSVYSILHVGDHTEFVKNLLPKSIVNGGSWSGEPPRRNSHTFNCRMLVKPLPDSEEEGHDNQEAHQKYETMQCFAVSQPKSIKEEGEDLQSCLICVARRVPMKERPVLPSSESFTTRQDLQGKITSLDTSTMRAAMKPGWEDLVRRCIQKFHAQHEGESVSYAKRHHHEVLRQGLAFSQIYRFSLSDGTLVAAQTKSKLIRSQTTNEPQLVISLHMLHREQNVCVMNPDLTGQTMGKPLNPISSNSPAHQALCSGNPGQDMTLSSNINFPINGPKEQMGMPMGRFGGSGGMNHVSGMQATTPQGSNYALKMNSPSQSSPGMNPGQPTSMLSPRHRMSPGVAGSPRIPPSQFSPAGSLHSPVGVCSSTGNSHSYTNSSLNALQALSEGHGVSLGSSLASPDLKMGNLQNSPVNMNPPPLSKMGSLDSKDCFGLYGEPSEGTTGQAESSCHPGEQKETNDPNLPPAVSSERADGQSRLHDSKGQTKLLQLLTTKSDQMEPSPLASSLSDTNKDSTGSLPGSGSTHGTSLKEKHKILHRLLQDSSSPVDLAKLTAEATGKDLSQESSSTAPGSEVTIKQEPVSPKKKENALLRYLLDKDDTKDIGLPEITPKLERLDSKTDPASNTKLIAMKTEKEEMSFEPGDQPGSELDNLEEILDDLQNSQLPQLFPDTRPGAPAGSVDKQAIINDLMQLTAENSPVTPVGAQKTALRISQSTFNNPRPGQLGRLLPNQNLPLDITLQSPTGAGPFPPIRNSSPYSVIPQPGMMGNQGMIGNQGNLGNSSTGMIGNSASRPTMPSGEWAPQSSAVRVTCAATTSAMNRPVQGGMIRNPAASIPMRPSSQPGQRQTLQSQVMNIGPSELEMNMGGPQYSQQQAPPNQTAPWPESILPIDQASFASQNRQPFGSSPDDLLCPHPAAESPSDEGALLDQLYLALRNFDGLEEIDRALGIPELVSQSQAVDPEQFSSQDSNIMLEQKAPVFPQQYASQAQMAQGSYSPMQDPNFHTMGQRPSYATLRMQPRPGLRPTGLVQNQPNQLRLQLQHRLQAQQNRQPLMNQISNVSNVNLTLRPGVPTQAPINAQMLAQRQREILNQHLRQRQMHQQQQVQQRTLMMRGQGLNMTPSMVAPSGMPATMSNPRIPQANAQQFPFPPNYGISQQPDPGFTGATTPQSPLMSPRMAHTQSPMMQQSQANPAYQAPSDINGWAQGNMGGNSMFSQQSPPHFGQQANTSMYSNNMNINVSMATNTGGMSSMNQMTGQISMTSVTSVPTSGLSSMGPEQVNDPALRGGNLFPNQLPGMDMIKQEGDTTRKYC

[8] = target: Peroxisome proliferator-activated receptor gamma/Nuclear receptor coactivator 3 (Homo sapiens, UniProt P37231); test: as §1, with “3 (SRC-3)” for “2 (SRC-2)”, “1301 (Confirmation screen.), 1048 (Primary screen.)]” for “1297, 1032 ]”; type: functional
Peroxisome proliferator-activated receptor gamma/Nuclear receptor coactivator 3, sequence (P37231 whole entry, the tested form may be a part): as the sequence (P37231 whole entry) above
Peroxisome proliferator-activated receptor gamma/Nuclear receptor coactivator 3, sequence (Q9Y6Q9 whole entry, further chain, the tested form may be a part): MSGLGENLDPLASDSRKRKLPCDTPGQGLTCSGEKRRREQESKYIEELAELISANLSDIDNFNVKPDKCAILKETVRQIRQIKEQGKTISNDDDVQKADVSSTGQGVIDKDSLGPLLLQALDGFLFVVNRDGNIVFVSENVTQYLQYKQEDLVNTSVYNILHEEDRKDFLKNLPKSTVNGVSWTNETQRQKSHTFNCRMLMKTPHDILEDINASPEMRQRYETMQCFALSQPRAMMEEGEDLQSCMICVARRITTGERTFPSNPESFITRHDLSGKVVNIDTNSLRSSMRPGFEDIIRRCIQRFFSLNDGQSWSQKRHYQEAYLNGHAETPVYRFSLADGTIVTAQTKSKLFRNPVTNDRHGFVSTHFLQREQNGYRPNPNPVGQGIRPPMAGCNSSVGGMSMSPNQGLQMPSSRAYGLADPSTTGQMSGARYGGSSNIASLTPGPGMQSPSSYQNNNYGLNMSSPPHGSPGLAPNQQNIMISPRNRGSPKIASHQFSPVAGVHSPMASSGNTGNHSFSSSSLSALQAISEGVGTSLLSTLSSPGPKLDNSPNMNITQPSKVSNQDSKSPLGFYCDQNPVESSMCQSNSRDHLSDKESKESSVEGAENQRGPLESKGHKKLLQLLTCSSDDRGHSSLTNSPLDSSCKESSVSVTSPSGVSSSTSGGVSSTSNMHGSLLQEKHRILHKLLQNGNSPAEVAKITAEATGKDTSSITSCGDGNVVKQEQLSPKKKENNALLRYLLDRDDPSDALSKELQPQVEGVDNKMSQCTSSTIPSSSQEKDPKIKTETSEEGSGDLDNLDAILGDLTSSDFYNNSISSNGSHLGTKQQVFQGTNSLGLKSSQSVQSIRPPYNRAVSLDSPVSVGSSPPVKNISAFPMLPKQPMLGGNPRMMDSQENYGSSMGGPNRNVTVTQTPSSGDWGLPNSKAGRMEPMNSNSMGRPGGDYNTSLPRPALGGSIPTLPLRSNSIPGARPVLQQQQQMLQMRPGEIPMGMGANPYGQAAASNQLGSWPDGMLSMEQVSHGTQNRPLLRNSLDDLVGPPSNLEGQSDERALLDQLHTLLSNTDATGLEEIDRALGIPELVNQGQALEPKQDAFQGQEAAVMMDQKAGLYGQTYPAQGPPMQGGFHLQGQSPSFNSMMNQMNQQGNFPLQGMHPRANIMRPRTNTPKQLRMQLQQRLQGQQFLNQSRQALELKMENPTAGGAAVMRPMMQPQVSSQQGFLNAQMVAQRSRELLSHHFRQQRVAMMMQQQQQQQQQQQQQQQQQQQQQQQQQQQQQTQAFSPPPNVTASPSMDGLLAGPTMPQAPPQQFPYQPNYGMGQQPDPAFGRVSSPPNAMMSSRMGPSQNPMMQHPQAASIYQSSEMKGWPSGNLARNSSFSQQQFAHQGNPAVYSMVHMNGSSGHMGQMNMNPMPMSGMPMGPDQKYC

[9] = target: T2, RNA-binding protein pos-1 (Caenorhabditis elegans, UniProt G5EF15); test: inhibitors of POS-1/mex-3 RNA binding, dose response, biochemical, fluorescence polarization (AID 1964);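 also: purified POS-1 fused to maltose binding protein made in E. coli; potency of compounds blocking POS-1 binding to fluorescent RNA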
T2 sequence (G5EF15 whole entry): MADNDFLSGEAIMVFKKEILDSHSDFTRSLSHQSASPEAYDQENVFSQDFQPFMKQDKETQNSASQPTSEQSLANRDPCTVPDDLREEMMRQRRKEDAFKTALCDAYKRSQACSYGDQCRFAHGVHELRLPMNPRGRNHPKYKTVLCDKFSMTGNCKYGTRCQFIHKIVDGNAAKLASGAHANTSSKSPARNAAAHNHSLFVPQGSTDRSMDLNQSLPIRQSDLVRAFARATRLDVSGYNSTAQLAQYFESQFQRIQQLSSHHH

[10] = target: T3, Zinc finger protein mex-5 (Caenorhabditis elegans, UniProt Q9XUB2); test: MEX-5/TCR-2 RNA interaction inhibitors, dose response, biochemical, C. elegans, fluorescence polarization (AID 1960)
T3 sequence (Q9XUB2 whole entry): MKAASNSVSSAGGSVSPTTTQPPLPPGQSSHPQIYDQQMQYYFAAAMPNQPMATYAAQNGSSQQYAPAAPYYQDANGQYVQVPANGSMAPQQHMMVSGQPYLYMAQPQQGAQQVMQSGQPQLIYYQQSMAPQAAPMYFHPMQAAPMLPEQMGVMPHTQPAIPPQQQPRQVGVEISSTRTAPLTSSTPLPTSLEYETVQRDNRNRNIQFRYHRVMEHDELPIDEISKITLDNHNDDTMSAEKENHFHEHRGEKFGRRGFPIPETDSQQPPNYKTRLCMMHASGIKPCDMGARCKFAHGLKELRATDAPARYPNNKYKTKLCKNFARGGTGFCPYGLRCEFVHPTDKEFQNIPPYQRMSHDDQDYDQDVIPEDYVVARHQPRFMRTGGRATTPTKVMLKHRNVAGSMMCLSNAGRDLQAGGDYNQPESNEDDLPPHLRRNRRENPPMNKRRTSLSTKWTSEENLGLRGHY

| Compound | EC50 [6] | EC50 [7] | EC50 [8] | also measured |
| --- | --- | --- | --- | --- |
| Cc1sc2ncnc(NCC(c3ccccc3)N(C)C)c2c1C (stereo not drawn) | – | – | – | EC50 [1]: 0.237 µM (active) |
| Cc1nc(NCC(c2ccccc2)N(C)C)c2c(C)c(C)sc2n1 (stereo not drawn) | – | – | – | EC50 [1]: 0.335 µM (active) |
| COc1cc2c(c(OC)c1OC)[C@@]1(c3ccccc3)CCCC[C@H]1[C@@H]2NC(=O)C(F)(F)F | – | – | – | AC50 [2]: 7.65 µM (active); AC50 [3]: 5.7 µM (active); AC50 [4]: 6.21 µM (active) |
| CCCCOc1cccc(C(=O)Nc2ccc(NC(=O)c3ccco3)cc2)c1 | – | – | – | EC50 [5]: 0.222 µM (active) |
| CCn1c(=O)cc(SCC(=O)Nc2cccc(C)n2)c2ccccc21 | > 79.4 µM (inactive) | > 79.4 µM (not active) | > 79.4 µM (not active) | – |
| CCCCC(=O)Nc1ccc(C(=O)N2CCCC(C(=O)OCC)C2)cc1 (stereo not drawn) | – | – | – | EC50 [5]: 5.72 µM (active) |

More lines, main results first:

| EC50 [6] | EC50 [7] | EC50 [8] | Compound | also measured |
| --- | --- | --- | --- | --- |
| 13.3 µM (inactive) | 9.39 µM (active) | > 79.4 µM (not active) | COC(=O)c1c(N=C(S)Nc2ccc(CC(=O)O)cc2)sc(C)c1C | – |
| 19.8 µM (inactive) | 18.7 µM (not active) | > 79.4 µM (not active) | COc1ccc(C2C(C(=O)c3ccco3)=C(O)C(=O)N2c2nnc(C)s2)cc1 (stereo not drawn) | EC50 [9]: 109 µM (active); EC50 [10]: 216 µM (active) |
